Source: paper PMC13261308, “Mapping Functionally Relevant Tractable Lysines of Challenging Protein Targets by Covalent Fragment Screening” (Chembiochem, 2026)

Columns and labels:
[1] = HPLC-MS-based stability (blank, without N-α-acetyl-lysine) in BBS buffer pH 10.2; settings: pH 10.2 buffer without N-α-acetyl-lysine
Experimental: (§1) 1.2.1 HPLC-MS-based N-α-acetyl-lysine reactivity assay3
(§2) HPLC-MS measurements were performed using a Shimadzu LCMS-2020 device equipped with a positive–negative double ion source (DUIS±) and a quadrupole MS analyzer in the range of m/z 50–1000. The sample was eluted with gradient elution using eluent A (0.1% HCOOH in H2O) and eluent B (0.1% HCOOH in MeCN). The column temperature was always kept at 30 °C; the injection volume was 10 µL, and the flow rate was set to 1.5 mL/min. A Reprospher C18 (5 μm, 100 mm × 3 mm) column was used along with the following gradient. The in itial condition was 0% B eluent, followed by a linear gradient to 100% B eluent by 2 min; from 2 to […]
(§3) was restored and retained until 5 min.
(§4) For the reactivity and stability assay, in a glass LC-MS vial the internal standard (indoprofen or papaverine or 1,4-dicyanobenzene, 50 µL, 2 mM in acetonitrile) and the 100 mM BBS buffer […]
(§5) of reactivity or stability, respectively). Finally, to this mixture the corresponding electrophile was added (50 µl, 20 mM in acetonitrile) right before the measurement. The vial was mixed, then analyzed by HPLC-MS (10 µL injection volume) at intervals of approximately 60 min (0-4 h, 6 […]
(§6) Final volume was 1 mL. In the case of highly reactive compounds, the measurement was done within 1 h, monitored every 5 minutes. The AUC (area under the […]
(§7) corrected with the internal standard. The fragments’ AUC values were subjected to ordinary least-squares (OLS) linear regression, and to compute the important parameters (kinetic rate constant and half-life time), an Excel sheet was applied. The data are expressed as means of duplicate determination. The kinetic rate constant for the degradation and corrected N-α-acetyl-lysine reactivity were calculated as follows. The reaction half-life for pseudo-first-order reactions (t1/2) is ln 2/k, where k is the reaction rate. In the case of competing reactions (reaction with N-α-acetyl-lysine and degradation), the apparent reaction rate is kLys = kBlank + kBinding.
(§8) When half-lives are measured experimentally, t1/2(Lys) = ln 2/(kLys) = ln 2/(kBlank + kBinding). In our case, the corrected kBlank and kLys (regarding blank and N-α-acetyl lysine-containing samples, respectively) can be calculated by linear regression of the measured kinetic data points. […]

[2] = HPLC-MS-based N-α-acetyl-lysine reactivity assay; settings: pH 10.2, monitored for 24 h
Experimental: as §1, §2, §3, §4, §5, §6, §7, §8

SMILES: O=S(=O)(F)Oc1cc(C(F)(F)F)cc(C(F)(F)F)c1 [compound 4]
- Stability t1/2, pH 10.2 [1]: 4.94 h

SMILES: O=S(=O)(On1nnc2ccccc21)c1cc(C(F)(F)F)cc(C(F)(F)F)c1 [compound 6]
- Stability t1/2, pH 10.2 [1]: 0.35 h

SMILES: Cc1ccc(S(=O)(=O)N(CC#N)C(=O)Cc2cc(C(F)(F)F)cc(C(F)(F)F)c2)cc1 [compound 8]
- Lys-reactivity t1/2, pH 10.2 [2]: 0.26 h
- Stability t1/2, pH 10.2 [1]: 0.17 h

SMILES: CC(=O)N(C(=O)c1cc(C(F)(F)F)cc(C(F)(F)F)c1)c1ccccc1 [compound 13]
- Lys-reactivity t1/2, pH 10.2 [2]: 0.27 h

SMILES: FC(F)=Cc1cc(C(F)(F)F)cc(C(F)(F)F)c1 [compound 17]
- Stability t1/2, pH 10.2 [1]: 3.32 h

SMILES: COc1c(Nc2cc(C(F)(F)F)cc(C(F)(F)F)c2)c(=O)c1=O [compound 18]
- Stability t1/2, pH 10.2 [1]: 12.17 h

SMILES: FC(F)(F)c1cc(Nc2nc(Cl)nc(Cl)n2)cc(C(F)(F)F)c1 [compound 19]
- Stability t1/2, pH 10.2 [1]: 0.97 h

SMILES: O=Cc1c(O)cc(C(F)(F)F)cc1C(F)(F)F [compound 26]
- Lys-reactivity t1/2, pH 10.2 [2]: 40.93 h
- Stability t1/2, pH 10.2 [1]: 246.76 h

SMILES: O=Cc1cc2ccccc2cc1C=O [compound 31, 2,3‐naphthalene‐dicarboxaldehyde]
- Stability t1/2, pH 10.2 [1]: 11.69 h

SMILES: C#Cc1ccc(C(F)(F)F)cc1C=O [compound 32]
- Lys-reactivity t1/2, pH 10.2 [2]: 0.23 h
- Stability t1/2, pH 10.2 [1]: 15.36 h
